Experimental data reported in patent US11241398B2, “Affinity medicant conjugate” (Califia Pharma Inc., priority 2014, dated 2022).
Like-named read-outs stand apart in the source and are kept apart here. Marks after values point to notes of the source that are not given here.

Columns and labels:
MV522 cell line [1] = experiment: two hour toxicity: inhibition of 50% of DNA synthesis activity, target cell line; conditions: for IC50: read-out: Mean IC50 value, MV522 Target Cell Line, 2 hr exposure, MV522 target cell line, 2 hr exposure, mean ± SD, N = 3 unless otherwise indicated; for cytotoxicity (in words): see Table XV
Procedure: (§1) The MV522 cell line is a lung-derived adenocarcinoma cell line. In various embodiments of the invention, the MV522 cell line represents a “target” cell line. […] The two hour toxicity data represents the concentration of a given analog for which a two hour exposure will inhibit 50% of the DNA synthesis activity in a given cell line. The 48 hour exposure data represents the concentration at which a given analog with a 48 hour exposure will inhibit the growth or viability in a given cell line as defined by the standard Trypan Blue Exclusion assay.

8392B cell line [2] = experiment: two hour toxicity: inhibition of 50% of DNA synthesis activity, nontarget cell line; assay type: cell-based; conditions: read-out: Mean IC50 value, 8392B Nontarget Cell Line, 2 hr exposure, mean ± SD, N = 3 unless otherwise indicated
Procedure: as §1

8392B cell line [3] = experiment: 48 hour exposure, growth or viability by Trypan Blue Exclusion assay, nontarget cell line; assay type: cell-based; conditions: read-out: Mean IC50 value, 8392B Nontarget Cell Line, 48 hr exposure; 8392B nontarget cell line; 48 hr exposure; mean ± SD, N = 3 unless otherwise indicated
Procedure: as §1

MV522 cell line [4] = experiment: 48 hour exposure, growth or viability by Trypan Blue Exclusion assay, target cell line; assay type: cell-based; conditions: read-out: Mean IC50 value, MV522 Target Cell Line, 48 hr exposure, mean ± SD, N = 3 unless otherwise indicated
Procedure: as §1

[5] = system: Prostate LnCAP (positive PSA); experiment: activity of PSA cleavable analogs, 48 hour exposure, PSA positive cell line; assay type: cell-based; conditions: N = 3, mean ± SD
[6] = system: NCI-DTP 60 cell line panel; conditions: cited from earlier work
MCF7 (ER positive) = experiment: cytotoxic data IC50, 2 hour exposure, cells expressing the estrogen receptor; assay type: cell-based; conditions: Table VII
Description: MCF7 over express estrogen alpha-receptors.
MCF7 cells over express estrogen alpha-receptors.

MDR phenotypes = experiment: multidrug resistance studies (mechanisms of drug resistance); assay type: cell-based; conditions: multi-medicant resistance phenotype, Bcl-2 over expression, p53 and p21/WAF1 mutations
[7] = system: hormone-refractory prostate cancer; conditions: cited from earlier work

| SMILES | IC50 (MV522 cell line [1]) [µM] | IC50 (8392B cell line [2]) [µM] | IC50 (8392B cell line [3]) [µM] | also measured |
| --- | --- | --- | --- | --- |
| CC1=C(OC(=O)CCCCC(=O)c2ccccc2)C2=C(C)C3(CC3)[C@@](C)(O)C(=O)C2=C1 [Analog 158] | > 175 | > 200 |  |  |
| CC1=C2C(=O)C(C)(OC(C)C)CC2C(O)C(=O)C12CC2 (centres unmarked) [Analog 183] | > 120 | > 120 | > 235 |  |
| CC1=CC2C(=C(C)C3(CC3)C(C)(O)C2O)C1=O (centres unmarked) [Analog 186] | 144 ± 32 |  |  | IC50 (MV522 cell line [4]): 70 ± 16 µM |
| CC1=C(CN2C(=O)C=CC2=O)C2=C(C)C3(CC3)[C@@](C)(O)C(=O)C2=C1 [Analog 189] |  |  |  | cytotoxicity (in words) (MV522 cell line [1]): cytotoxic with nM activity |
| CC1=C(CCCN2C(=O)C=CC2=O)C2=C(C)C3(CC3)[C@@](C)(O)C(=O)C2=C1 [Analog 190] |  |  |  | cytotoxicity (in words) (MV522 cell line [1]): cytotoxic with nM activity |
| CC1=C2C(=CC(C)(CO[Si](C)(C)C(C)(C)C)C2N)C(=O)C(C)(O)C12CC2 (centres unmarked) [Analog 205] | 8.4 ± 2.2 | > 185 | > 2.6 |  |
| CC1=C2C(=C[C@@](C)(CO[Si](C)(C)C(C)(C)C)[C@@H]2OC(=O)[C@@H]2CCCN2C(=O)[C@H](CO)NC(=O)[C@@H](N)CO)C(=O)[C@](C)(O)C12CC2 [Analog 214] |  |  |  | IC50 [5]: 0.19 ± 0.03 µM |
| CC1=C(COC(=O)CCCCCN2C(=O)C=CC2=O)C2=C(C)C3(CC3)[C@@](C)(O)C(=O)C2=C1 [Analog 217] |  |  |  | cytotoxicity (in words) (MV522 cell line [1]): cytotoxic with nM activity |
| CC1=C2C(=CC(C)(C)[C@@H]2OC(=O)CCCCCN2C(=O)C=CC2=O)C(=O)[C@](C)(O)C12CC2 [Analog 218] |  |  | 0.6 ± 0.1 | cytotoxicity (in words) (MV522 cell line [1]): cytotoxic with nM activity; IC50 (MV522 cell line [4]): 0.6 ± 0.2 µM |
| CC1=C2C(=C[C@@](C)(CO[Si](C)(C)C(C)(C)C)[C@@H]2OC(=O)c2ccc(S(=O)(=O)F)cc2)C(=O)[C@](C)(O)C12CC2 [Analog 219] | > 52 | > 52 | > 52 |  |
| CC1=C2C(=CC(C)(C)[C@@H]2OC(=O)c2ccc(S(=O)(=O)F)cc2)C(=O)[C@](C)(O)C12CC2 [Analog 222] |  | 9.3 |  |  |
| CC1=CC2=C(C)C3(CC3)C(C)(O)C(=NO)C2=C1 (centres unmarked) [Analog 224] |  |  |  | differential toxicity between the target and nontarget cell line (MV522 cell line [1]; MV522 versus 8392B): no differential toxicity; toxicity (in words) (MV522 cell line [1]; target and nontarget cell line): minimal toxicity |
| CC1=C(CCCNS(C)(=O)=O)C2=C(C)C3(CC3)[C@@](C)(O)C(=O)C2=C1 [Analog 241] |  | > 28 |  |  |
| CC1=C2[C@@H](O)C(C)(C)[C@H]3C[C@@]23C(=O)[C@](C)(O)C12CC2 [Analog 252] | > 380 | > 380 | > 380 |  |
| CC1=C(CCCNS(N)(=O)=O)C2=CC3(CC3)C(C)(O)C(=O)C2=C1 (centres unmarked) [Analog 264] |  | > 85 |  | IC50 (MV522 cell line [4]): 0.076 ± 0.017 µM |
| CC1=C(CCCNC(=O)OCC2=C(C(=O)O)N3C(=O)C(NC(=O)Cc4cccs4)C3S(=O)(=O)C2)C2=C(C)C3(CC3)C(C)(O)C(=O)C2=C1 (centres unmarked) [Analog 274] |  | > 46 | > 4.5 |  |
| CC[C@H](C)[C@@H]([C@@H](CC(=O)N1CCC[C@H]1[C@H](OC)[C@@H](C)C(=O)NCCc1ccccc1)OC)N(C)C(=O)[C@@H](NC(=O)[C@H](C(C)C)N(C)C)C(C)C [Auristatins] |  |  |  | Mean LD50 cytotoxic ([6]; NCI DTP 60 cell line mean): >5,000 nM; Mean TGI cytostatic ([6]; NCI DTP 60 cell line mean): 902** nM; GI50 ([6]; read-out: Mean GI50 inhibition, NCI DTP 60 cell line mean): 0.0014 µM |
| C=C1C[C@@H]2CC[C@@]34C[C@H]5O[C@H]6[C@@H](O3)[C@H]3O[C@H](CC[C@@H]3O[C@H]6[C@H]5O4)CC(=O)O[C@@H]3[C@@H](C)[C@@H]4O[C@@H]5C[C@]6(C[C@@H]7O[C@]8(C[C@H](C)[C@@H]9O[C@H]([C@@H](O)C[C@@H](O)CO)C[C@@H]9O8)C[C@H](C)[C@@H]7O6)O[C@@H]5C[C@@H]4O[C@H]3C[C@H]3O[C@@H](CC[C@@H]1O2)C[C@@H](C)C3=C [Halichondrin B] |  |  |  | Mean TGI cytostatic ([6]; NCI DTP 60 cell line mean): 199 nM; Mean LD50 cytotoxic [6]: >1,000 nM |
| CC1=C2C(=CC(C)(C)[C@@H]2O)C(=O)[C@](C)(O)C12CC2 [Illudin M, reference compound] |  |  |  | preferential killing of MCF7 (ER positive) versus ER negative cells (MCF7 (ER positive)): to the same extent; Mean LD50 cytotoxic ([6]; NCI DTP 60 cell line mean): 912 nM |
| CC1=C(CO)C2=C(C)C3(CC3)[C@@](C)(O)C(=O)C2=C1 [Irofulven, 6-hydroxymethylacylfulvene] |  |  |  | activity versus common resistance mechanisms (MDR phenotypes): independent of common resistance mechanisms; clinical activity [7]: demonstrated clinical activity; safety profile [7]: acceptable safety profile |
